In patent US20250313533A1, “QUINOLINE CARBOXYLIC ACID ESTER COMPOUND AND PREPARATION METHOD AND USE THEREOF” (priority 2019, published 2025):

What was measured:
[1] = system: pathogenic bacteria causing bacterial angular leaf spot in cucumbers; experiment: In vitro bactericidal activity, bacterial angular leaf spot in cucumbers; assay type: cell-based, pseudomonas; details: read-out: inhibitory rate; for inhibition at 1 ppm: dosage 1 ppm; for inhibition at 5 ppm: dosage 5 ppm
[2] = system: pathogenic bacteria causing bacterial wilt in tobacco; experiment: whole plant or invertebrate; assay type: cell-based, ralstonia; details: read-out: inhibitory rate
[3] = system: pathogenic bacteria causing black shank in potatoes; experiment: In vitro bactericidal activity, black shank in potatoes; assay type: cell-based; details: read-out: inhibitory rate; for inhibition at 1 ppm: dosage 1 ppm; for inhibition at 5 ppm: dosage 5 ppm
[4] = system: pathogenic bacteria causing stem rot in sweet potatoes; experiment: In vitro bactericidal activity, stem rot in sweet potatoes; assay type: cell-based, dikia; details: read-out: inhibitory rate; for inhibition at 1 ppm: dosage 1 ppm; for inhibition at 5 ppm: dosage 5 ppm
[5] = system: pathogenic bacteria causing bacterial blight in rice; experiment: whole plant or invertebrate; assay type: cell-based, xanthomonas; details: read-out: inhibitory rate
[6] = system: pathogenic bacteria causing fruit blotch in watermelons; experiment: In vitro bactericidal activity, fruit blotch in watermelons; assay type: cell-based, acidovorax; details: read-out: inhibitory rate; for inhibition at 1 ppm: dosage 1 ppm; for inhibition at 5 ppm: dosage 5 ppm
[7] = system: pathogenic bacteria causing black rot in Chinese cabbages; experiment: In vitro bactericidal activity, black rot in Chinese cabbages; assay type: cell-based, xanthomonas; details: Xanthomonas, read-out: inhibitory rate; for inhibition at 1 ppm: dosage 1 ppm; for inhibition at 5 ppm: dosage 5 ppm
[8] = system: pathogenic bacteria causing bacterial wilt in cassava; experiment: organism not typed; assay type: cell-based; details: read-out: inhibitory rate
[9] = system: pathogenic bacteria causing fire blight in pears; experiment: In vitro bactericidal activity, fire blight in pears; assay type: cell-based, erwinia; details: Erwinia, read-out: inhibitory rate; for inhibition at 1 ppm: dosage 1 ppm; for inhibition at 5 ppm: dosage 5 ppm
black shank in potatoes = experiment: Living crops in vivo protective activity, potatoes (root irrigation); details: Solanum tuberosum, read-out: efficacy against black shank in potatoes; for pest or weed control at 5 ppm: dosage 5 ppm; for pest or weed control at 10 ppm: dosage 10 ppm
Procedure: Root irrigation was carried out on the potatoes for tests according to the designed concentration of the agents. The dosage for each plant was 200 mL and was kept consistent (also for the control). The black shank bacteria were inoculated on the second day after the application. The results were investigated according to the disease condition.

[10] = system: indoor potted cucumber seedlings; experiment: Effect of improving growth and development of crops; assay type: in vivo; design: Rate of growth rate increase (%): concentration or dose not given beside the values; details: versus blank control; for Rate of chlorophyll content increase (%) / Rate of leaf area increase (%): 14 days after application; for Rate of growth rate increase (%): plant height 14 days after application; for Rate of leaf area increase (%): second leaf
Summary of the method: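 Plant height and second-leaf length/width were measured before application and 14 days after; growth rate and its percent increase, leaf area and leaf-area increase were calculated from these. Chlorophyll was read with a SPAD chlorophyll meter and its increase rate derived.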

cucumber seedlings = experiment: Safety for plant growth after application; assay type: in vivo; details: dosage 200 ppm
Summary of the method: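 Safety to the crop is assessed on cucumber seedlings in indoor pots by tracking how treatment alters leaf area, chlorophyll level and height growth rate.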

[11] = system: soft rot in Chinese cabbages; experiment: Field test for controlling soft rot in Chinese cabbages; assay type: in vivo, Chinese cabbage; details: 7 days after the last application
Procedure: (§1) In October 2019, tests were carried out in fields of Chinese cabbage, wild cabbage and lettuce in Tai'an, Shandong. The doses of the compounds 152 and 282 of the present disclosure (both prepared as dispersible granules with a mass fraction of 10%) used were 16.87 ga.i./hm^2 and 33.75 ga.i./hm^2, and the control agents used were 3% (by weight) wettable powder of zhongshengmycin and 33.5% (by weight) aqueous suspension of oxine-copper (both were commercially available). The dose of zhongshengmycin was 67.5 ga.i./hm^2, and the dose of oxine-copper was 337.5 ga.i./hm^2. Test and control agents were arranged in randomized blocks. Plot area was 15 m^2. Treatment was repeated 3 times. The route of application was spraying on stem and leaves. The application was performed 2 times in total at an interval of 7 days, and the efficacy investigation was performed 7 days after the last application. During the investigation, sampling was carried out at 5 points in each plot. Disease conditions of soft rot in Chinese cabbages, soft rot in lettuces and soft rot in wild cabbages were recorded according to the relevant technical standard of Pesticide Guidelines for the Field Efficacy Trials GB/T17980.114-2004, and the incidence rate of plants was calculated to further evaluate the control effect.

[12] = system: soft rot in wild cabbages; experiment: Field test for controlling soft rot in wild cabbages; assay type: in vivo, wild cabbage; details: 7 days after the last application
Procedure: as §1

soft rot in lettuces = experiment: Field test for controlling soft rot in lettuces; assay type: in vivo, lettuce; details: 7 days after the last application
Procedure: as §1

[13] = system: bacterial wilt in tobacco; experiment: whole plant or invertebrate; details: Nicotiana tabacum, read-out: efficacy against bacterial wilt in tobacco
[14] = system: stem rot in sweet potatoes; experiment: whole plant or invertebrate; details: read-out: efficacy against stem rot in sweet potatoes
bacterial blight in rice = experiment: whole plant or invertebrate; details: Oryza sativa, read-out: efficacy against bacterial blight in rice
[15] = system: fruit blotch in watermelons; experiment: whole plant or invertebrate; details: read-out: efficacy against fruit blotch in watermelons
[16] = system: soft rot in Chinese cabbages; experiment: whole plant or invertebrate; details: 48 h, read-out: efficacy against soft rot in Chinese cabbages
[17] = dose 16.87 g a.i./hm^2, 2 sprays
[18] = dose 33.75 g a.i./hm^2, 2 sprays

SMILES	inhibition at 1 ppm [1] [%]	inhibition at 5 ppm [1] [%]	inhibition at 1 ppm [2] [%]	inhibition at 5 ppm [2] [%]	inhibition at 1 ppm [3] [%]	inhibition at 5 ppm [3] [%]	inhibition at 1 ppm [4] [%]	inhibition at 5 ppm [4] [%]	inhibition at 1 ppm [5] [%]	inhibition at 5 ppm [5] [%]	inhibition at 1 ppm [6] [%]	inhibition at 5 ppm [6] [%]	inhibition at 1 ppm [7] [%]	inhibition at 5 ppm [7] [%]	inhibition at 1 ppm [8] [%]	inhibition at 5 ppm [8] [%]	inhibition at 1 ppm [9] [%]	inhibition at 5 ppm [9] [%]	pest or weed control at 5 ppm (black shank in potatoes) [%]	pest or weed control at 10 ppm (black shank in potatoes) [%]	other results
COCCOC(=O)c1cn(C2CC2)c2cc(Cl)c(F)cc2c1=O [Compound 152, 2-methoxyethyl 7-chloro-1-cyclopropyl-6-fluoro-4-oxo-1,4-dihydroquinoline-3-carboxylate]	≥ 90	≥ 90	≥ 90	≥ 90	≥ 90	≥ 90	≥ 90	≥ 90	≥ 90	≥ 90	≥ 90	≥ 90	≥ 90	≥ 90	≥ 90	≥ 90	≥ 90	≥ 90	≥ 90	≥ 90	Rate of chlorophyll content increase (%) [10]: 17%; Rate of growth rate increase (%) [10]: 15%; Rate of leaf area increase (%) [10]: 16%; safety for plant growth (discoloration, necrosis, wilt, malformation) (cucumber seedlings): safe for plant growth; Control effect (%) [11, 17]: 86%; Control effect (%) [11, 18]: 96%; Control effect (%) [12, 17]: 82%; Control effect (%) [12, 18]: 93%; Control effect (%) (soft rot in lettuces; [17]): 79%; Control effect (%) (soft rot in lettuces; [18]): 90%; pest or weed control at 5 ppm [13]: ≥ 90%; pest or weed control at 10 ppm [13]: ≥ 90%; pest or weed control at 5 ppm [14]: ≥ 90%; pest or weed control at 10 ppm [14]: ≥ 90%; pest or weed control at 5 ppm (bacterial blight in rice): ≥ 90%; pest or weed control at 10 ppm (bacterial blight in rice): ≥ 90%; pest or weed control at 5 ppm [15]: ≥ 90%; pest or weed control at 10 ppm [15]: ≥ 90%; pest or weed control at 5 ppm [16]: ≥ 90%; pest or weed control at 10 ppm [16]: ≥ 90%
CCOc1cc2c(cc1F)c(=O)c(C(=O)OCCOC)cn2C1CC1 [Compound 282, 2-methoxyethyl 1-cyclopropyl-6-fluoro-4-oxo-7-ethoxy-1,4-dihydroquinoline-3-carboxylate]	≥ 90	≥ 90	≥ 90	≥ 90	≥ 90	≥ 90	≥ 90	≥ 90	≥ 90	≥ 90	≥ 90	≥ 90	≥ 90	≥ 90	≥ 90	≥ 90	≥ 90	≥ 90	≥ 90	≥ 90	Rate of chlorophyll content increase (%) [10]: 16%; Rate of growth rate increase (%) [10]: 12%; Rate of leaf area increase (%) [10]: 16%; safety for plant growth (discoloration, necrosis, wilt, malformation) (cucumber seedlings): safe for plant growth; Control effect (%) [11, 17]: 82%; Control effect (%) [11, 18]: 90%; Control effect (%) [12, 17]: 80%; Control effect (%) [12, 18]: 87%; Control effect (%) (soft rot in lettuces; [17]): 73%; Control effect (%) (soft rot in lettuces; [18]): 85%; pest or weed control at 5 ppm [13]: ≥ 90%; pest or weed control at 10 ppm [13]: ≥ 90%; pest or weed control at 5 ppm [14]: ≥ 90%; pest or weed control at 10 ppm [14]: ≥ 90%; pest or weed control at 5 ppm (bacterial blight in rice): ≥ 90%; pest or weed control at 10 ppm (bacterial blight in rice): ≥ 90%; pest or weed control at 5 ppm [15]: ≥ 90%; pest or weed control at 10 ppm [15]: ≥ 90%; pest or weed control at 5 ppm [16]: ≥ 90%; pest or weed control at 10 ppm [16]: ≥ 90%
COCCOC(=O)c1cn(C2CC2)c2cc(N3CCCCC3)c(F)cc2c1=O [Compound 432]	≥ 90	≥ 90	≥ 90	≥ 90	≥ 90	≥ 90	≥ 90	≥ 90	≥ 90	≥ 90	≥ 90	≥ 90	≥ 90	≥ 90	≥ 90	≥ 90	≥ 90	≥ 90	≥ 90	≥ 90	Rate of chlorophyll content increase (%) [10]: 16%; Rate of growth rate increase (%) [10]: 12%; Rate of leaf area increase (%) [10]: 16%; safety for plant growth (discoloration, necrosis, wilt, malformation) (cucumber seedlings): safe for plant growth; pest or weed control at 5 ppm [13]: ≥ 90%; pest or weed control at 10 ppm [13]: ≥ 90%; pest or weed control at 5 ppm [14]: ≥ 90%; pest or weed control at 10 ppm [14]: ≥ 90%; pest or weed control at 5 ppm (bacterial blight in rice): ≥ 90%; pest or weed control at 10 ppm (bacterial blight in rice): ≥ 90%; pest or weed control at 5 ppm [15]: ≥ 90%; pest or weed control at 10 ppm [15]: ≥ 90%; pest or weed control at 5 ppm [16]: ≥ 90%; pest or weed control at 10 ppm [16]: ≥ 90%
